Results published in patent publication US9649313B2, “Use of ITK inhibitors for the treatment of cancer” (The University of North Carolina at Chapel Hill, priority 2012, dated 2017).

Experiments:
[1] = Riether et al., 2009; cited from earlier work
[2] = tested on: PD-L expression in the melanoma cells; test: PD-L expression in melanoma cells; format: cell-based
Description: In addition, we report a correlation between PD-L and ITK protein expression and also found a significant correlation between activated Akt and PD-L protein levels (data not shown). […] These observations are consistent with PI3K regulating PD-L expression, Akt or Erk activation and ITK protein levels (Davies, 2012; Jiang and Liu 2008 Biochim Biophys Acta 1784, 150-158; Parsa et al., 2007 Nat Med 13, 84-88)

[3] = tested on: ERK and AKT activation status in VMM 39 cells; test: western blot of ERK and AKT activation; format: cell-based, Human; conditions: concentrations as high as 50 nM, 3 days
Procedure: (§1) FIG. 9. Western blots of phospho-ERK and phospho-AKT.
(§2) To investigate the impact of ITK inhibition by BI 10N on the ERK and AKT signaling pathways, which are frequently misregulated in melanoma, the ITKHI melanoma cell lines (VMM 39 and RPMI 8322) were grown in the presence of increasing BI 10N concentrations. Western blot analysis was performed on whole cell lysates from these cells using antibodies against ERK, pERK^Thr202/Tyr204, AKT, and pAKT^Ser473.

[4] = tested on: ERK and AKT activation status in RPMI 8322 cells; test: western blot of ERK and AKT activation; format: cell-based, Human; conditions: concentrations as high as 50 nM, 3 days
Procedure: as §1, §2

[5] = tested on: PMWK (ITKLO) melanoma cell line; test: single cell motility assay; format: cell-based, Human
Description: FIG. 4A-4E. Effects of ITK knockdown on proliferation and motility of melanoma cells. FIG. 4A) Western of lysates of VMM 39 containing each of the four shRNA constructs using rabbit monoclonal anti ITK (Y401). FIG. 4B) The four shRNA lentiviral constructs were used to transduce three melanoma cell lines, PMWK (ITKLO), VMM 39 (ITKHI), and RPMI 8322 (ITKHI). 50,000 cells were placed into each well of a 6 well plate, which was then counted 3, 5, and 6, or 7 days after plating to assess the proliferation rates of the different cell lines. FIG. 4C) Single Cell Motility assays were performed on three different melanoma cell lines, PMWK, VMM 39, and RPMI 8322. Each melanoma cell line was transduced with the four shRNA lentiviral constructs producing a total of 12 cell lines. 10,000 cells were plated on fibronectin coated glass bottom dishes. Pictures were taken once every 40 minutes for 16 hours. FIG. 4D) Cell cycle analysis of PMWK, VMM 39, and RPMI 8322 cells that have been transduced with various shRNAs. Cells were harvested after 3 hours of incubation with 5-ethynyl-2′-deoxyuridine (EdU). EdU incorporation and DNA content with FxCycle Violet were analyzed using flow cytometry. Illustrated in this panel are the percentages of cells in G0/G1 (low DNA and EdU content), S (high EdU and low-to-medium DNA content), and G2/M (Low EdU and high DNA content). FIG. 4E) Single-cell motility analysis of PMWK, VMM 39, and RPMI 8322 that have been transduced with various shRNAs. At least 50 cells were tracked for each cell line and the average motility rate was determined. Shown with asterisks are the shRNA-transduced melanoma cell lines with significant impairment in motility (P<0.001 one-way ANOVA following Bonferroni adjustments for multiple comparisons).
FIG. 5A-5C. Effects of BI 10N inhibitor on proliferation and motility of melanoma cells. FIG. 5A) Cell motility assays were performed as described in FIG. 4A-4E; however, the inhibitor BI 10N was added to the media to decrease ITK kinase activity in parental cell lines instead of using the shRNA ITK knockdown cell lines. BI 10N was added to the media 24 hours prior to the start of the motility assay and the VivaView camera system was used to image cellular motility of the melanoma cells as described previously. […] Cells were trypsinized and counted using the Invitrogen Countess. […] The cells were counted with the Invitrogen Countess at 3, 5, and 6 or 7 days after plating to assess the proliferation rates of the different cell lines in the presence of BI 10N. […] Following 3 days of BI 10N treatment, the cells were incubated with EdU for 3 hours and were subsequently assessed for 5-ethynyl-2′-deoxyuridine (EdU) incorporation rate and DNA content with FxCycle Violet. […]

ITK = biological target: T1, ITK (Homo sapiens, UniProt Q08881); conditions: Riether et al., 2009, cited from earlier work
T1 construct: purchased Carna Biosciences
T1 sequence (Q08881 1-620): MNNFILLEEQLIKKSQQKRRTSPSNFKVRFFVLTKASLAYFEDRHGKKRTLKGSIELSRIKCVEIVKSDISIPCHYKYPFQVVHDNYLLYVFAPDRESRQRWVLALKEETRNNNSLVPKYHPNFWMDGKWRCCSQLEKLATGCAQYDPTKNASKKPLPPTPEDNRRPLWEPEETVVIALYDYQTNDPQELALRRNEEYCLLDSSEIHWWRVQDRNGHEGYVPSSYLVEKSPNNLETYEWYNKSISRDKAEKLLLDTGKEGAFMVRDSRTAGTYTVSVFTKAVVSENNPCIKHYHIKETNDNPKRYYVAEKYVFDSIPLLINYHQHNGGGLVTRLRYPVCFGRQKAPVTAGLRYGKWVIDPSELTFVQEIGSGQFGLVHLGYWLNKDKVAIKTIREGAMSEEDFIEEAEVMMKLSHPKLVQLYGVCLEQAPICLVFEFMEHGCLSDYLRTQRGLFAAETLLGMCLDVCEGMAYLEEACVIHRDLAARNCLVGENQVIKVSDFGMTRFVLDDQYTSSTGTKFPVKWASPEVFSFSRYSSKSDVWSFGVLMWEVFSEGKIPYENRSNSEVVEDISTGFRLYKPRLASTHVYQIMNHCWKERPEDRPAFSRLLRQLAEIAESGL

CC(C)C(C)CNCc1ccc2c(c1)[nH]/c(=N\C(=O)c1ccc(C3=CN=NC3)s1)n2CC(C)(C)O (centres unmarked) [BI 10N]
F value (bioavailable in mice) [1]: 21%
expression of PD-L [2]: did not change
activation status of ERK and AKT [3]: No significant effects
activation status of ERK and AKT [4]: No significant effects
concentration required for smaller changes in migration [5]: ≥ 150 nM
effect on migration ([5]; 10-25 nM): do not decrease
EC50 (ITK; read-out: EC50 (selective inhibitor of ITK)): 1 nM
IC50 (ITK; read-out: IC50 (inhibit ITK)): 1 nM
